The values below come from PMC12796071, “Evaluation of [^18F]MNI-1054, a novel PET ligand for lysine-specific histone demethylase 1A (LSD1), in non-human primates” (EJNMMI Research, 2025).

The nature of series [1]: Arterial plasma radiometabolite analysis (parent fraction) during PET. In kind it is in vivo, rhesus monkeys (macaca mulatta). Conditions: for parent fraction in arterial plasma: across baseline and blocking studies. As to the method: (§1) All brain scans were collected over 3 h on a microPET Focus 220 PET scanner (Siemens), with injected doses in the range 167.61–185 MBq. A transmission scan with an external Germanium-68 source was performed prior to the emission scans to estimate attenuation correction coefficients. Discrete arterial blood samples (n = 18–21) were taken throughout the scans to measure the parent fraction, plasma free fraction as well as total plasma and whole-blood activity for tracer kinetic modeling. Detailed procedures are provided in the Supplement.
To generate arterial input functions, [^18F]MNI-1054 parent fraction measurements in plasma were first fitted to a sum of decaying exponentials using the Levenberg-Marquardt algorithm. The total arterial plasma activity concentration measurements were then multiplied by the resulting continuous parent fractions to yield the final input functions for kinetic modeling.
Arterial blood samples (1 mL or 3.5 mL) were drawn at 0.75, 1.5, 2.25, 3, 3.75, 4, 5, 6, 8, 10, 15, 20, 25, 30, 45, 60, 90, 120, 150, and 180 min post-injection to measure parent fraction, total plasma and whole blood activity. The larger samples were drawn for analysis of parent fraction. Aliquots of 200 µL of whole blood were counted in a gamma counter (Wallac 2480 Wizard^2® Automatic Gamma Counter, Perkin-Elmer, Waltham, Massachusetts) for 1 min (400-1400 keV window). All blood samples were centrifuged for 10 min at 3,000 g and the plasma separated. Aliquots of 200 µL of plasma were counted in the gamma counter for 1 min (400-1400 keV window).
The fraction of unchanged radiotracer in plasma was determined by HPLC at selected time points. […] Sample vials and pellets were counted in the gamma counter for 1 min to calculate the extraction percentage. Gamma chromatograms were analyzed by integration of all radioactive peaks. The percentage of parent compound was calculated by dividing the area under the peak representing parent compound by the sum of the area of all radioactive peaks.

The target in the next series is LSD1 (Macaca mulatta, UniProt I2CUD2). As to the kind of experiment: Brain PET imaging and kinetic analysis of [18F]MNI-1054 (irreversible 2TCM, Patlak). The class given is in vivo. Also on record: from tissue; host or cells: brain of living rhesus monkeys (M1, M2), in vivo PET. Conditions: for Average Ki bias (SD) versus full 180-min scan: baseline studies; for Ki Baseline: cerebellum. The method, then:
as §1
M1 and M2 each completed a scan at baseline to assess brain penetration and kinetics and to serve as reference for the blocking and displacement studies. A self-block study with cold 3 mg/kg MNI-1054, starting 5 min prior to [^18F]MNI-1054 administration, was conducted in M1 to assess regional differences in non-specific binding.
Blocking studies with the LSD1 inhibitor TAK-418 ([…]) were performed to measure the dose-occupancy relationship for this compound. For blocking studies, TAK-418 was administered intravenously 2 h prior to [^18F]MNI-1054. Prior to conducting these blocking studies, a displacement study with TAK-418 (3 mg/kg) was performed to confirm irreversible tracer binding, in which TAK-418 was administered 1.5 h post [^18F]MNI-1054 administration. For all studies involving TAK-418, the test article was administered intravenously over 5 min. Due to the irreversible binding of these compounds to LSD1, the time taken for the enzyme to re-populate was investigated by imaging one animal (M2) with [^18F]MNI-1054 at 24 and 48 h post TAK-418 treatment (0.3 mg/kg). Each animal also underwent a high-resolution T1-weighted structural brain MRI scan with a 3-D MPRAGE sequence on a separate day for anatomical reference.
Emission data were reconstructed with filtered back projection into a series of 45 temporal frames (6 × 30, 3 × 60, 2 × 120, 34 × 300 s). For each frame, reconstructed images had dimensions of 256 × 256 × 95, voxel size of 0.949 × 0.949 × 0.796 mm and units of kBq/mL. All standard corrections were applied including normalization, random, scatter, dead-time, and attenuation. Dynamic brain PET images were analyzed using an in-house processing pipeline incorporating functionalities from FSL [18] and AFNI [19] as well as custom developed Matlab scripts (Mathworks Inc., Natick, MA, USA). Key steps of the workflow included rigidly aligning the PET images to the same animal’s brain MRI scan and spatially normalizing the MRI volume to the INIA19 [20] and NMT2.0 [21, 22] rhesus MR templates. Volumes of interest (VOIs) masks defined in rhesus MR template spaces were then inverse warped and applied to the PET images in their native orientation to compute time-activity curves (TACs) for the following regions: occipital lobe, temporal lobe, frontal lobe, parietal lobe, olfactory cortex, amygdala, cingulate, hippocampus, thalamus, hypothalamus, cerebellar grey matter, pons, striatum, nucleus accumbens and cerebral white matter. Lobar VOI masks were restricted to grey matter only. All VOI masks were derived from the INIA19 atlas, with the exception of the pons mask which was obtained from the NMT2.0 atlas (Fig. S.2.). The average activity concentration (kBq/mL) within each VOI was determined and TACs representing the regional brain activity concentration over time were generated. Brain TACs and images were presented in SUV units [g/mL] by normalizing activity concentration data [kBq/mL] by the animal’s weight [kg] and injected activity [MBq].
Regional TACs were modeled with an irreversible 2-tissue compartmental model (‘2TCM’) (k4 = 0) with the arterial input function to determine the tracer binding parameters Ki [mL/cm^3/min] (where Ki= K1. k3/(k2 + k3)) and λ.k3 (where λ = K1/k2), a parameter independent of blood flow and proportional to LSD1 binding site density via k3. […]

The mark [2] stands for this setting: irreversible 2TCM, across all scans and regions.

SMILES strings stand for the structures. Entries after “also recorded” stand apart in the source; their conditions may differ.

Turning to `Cc1cc([18F])ncc1C(=O)Nc1ccc([C@@H]2C[C@H]2NCC2CC2)cc1` [[^18F]MNI-1054], the results for the “parent fraction in arterial plasma” value in series [1] (30 min post-injection) and in series [1] (180 min post-injection) were ~ 42% and ~ 14%, respectively. Further, the “parent fraction and parent-in-plasma activity concentration levels, higher in self-block study” value in series [1] (self-block study (3 mg/kg cold MNI-1054) versus other studies) was “about 20%”. At LSD1 (3.0 mg/kg TAK-418 given 90 min post tracer injection, M1), the “displacement of tracer (change in TACs)” value was “no observable change in the TACs; also recorded: did not displace”. Besides, the results for the “Average Ki bias (SD) versus full 180-min scan” value on LSD1 (120-min scan duration) and at LSD1 (150-min scan duration) were 8.3 +/- 6.1% and 3.2 +/- 2.8%, respectively. For the same compound, the “difference Ki,Patlak versus Ki,2TCMirrev, mean +/- SD” value on LSD1 (Patlak t* = 30 min, all studies and regions) is given as −0.00494 +/- 0.00348 mL/cm^3/min. In addition, the “Regional Ki in displacement study compared with baseline” value at LSD1 (TAK-418 3 mg/kg 1.5 h post tracer, same animal) was “did not substantially vary”. Moreover, the “Ki Baseline” value at LSD1 (animal M1) is 0.058 mL/cm^3/min; on LSD1 (animal M2), 0.047 mL/cm^3/min. At LSD1 (setting [2]), the “k2/k3, max” value worked out at 194.4. For the same compound, the “k2/k3, mean (SD)” value at LSD1 (setting [2]) was 24.7 (28.6). Besides, the “k2/k3, min” value on LSD1 (setting [2]) was 6.1.
